# Experimental data from patent US7968526B2, “Antisense oligonucleotides directed to ribonucleotide reductase R2 and uses thereof in the treatment of cancer” (Lorus Therapeutics Inc., priority 2003, dated 2011).
# “Also recorded” adds a separate entry of the source.
# Assays:
# [1] = test system: MDA-CDDP-S4 human in vivo-selected Cisplatin-resistant breast adenocarcinoma cells; experiment: MDA-CDDP-S4 Cisplatin-resistant breast adenocarcinoma, fat pad, CB-17 SCID mice, combination with Taxol (2.4); set-up: species or system human cells in mice; conditions: SEQ ID NO:1 10 mg/kg i.v. every other day, Taxol 10 mg/kg i.p. weekly; for Tumour weight as % of saline control: MDA-CDDP-S4 (breast), Cisplatin resistant, SCID
# Procedure: BxPC-3 is a gemcitabine resistant call line. […] Gemcitabine was administered intravenously every three days at a dose of 100 mg/kg. Antitumour activities were estimated by the inhibition of tumour volume, which was measured with caliper. Each point represents mean tumour volume calculated from 10 animals per experimental group. […] Hela S3 is a hydroxyurea resistant cell line. […] Hydroxyurea was administered intraperitoneally every day at a dose of 250 mg/kg for 10 days. Cisplatin was administered intravenously once a week for three weeks at a dose of 4 mg/kg. Antitumour activities were estimated by the inhibition of tumour volume, which was measured with caliper. Each point represents mean tumour volume calculated from 10 animals per experimental group. […] Cisplatin was administered intravenously once a week for three weeks at a dose of 4 mg/kg. Taxol was administered intravenously once a week for three weeks at a dose of 10 mg/kg. Antitumour activities were estimated by the inhibition of tumour volume, which was measured with caliper. Each point represents mean tumour volume calculated from 10 animals per experimental group. […] Taxol was administered i.p. once a week at a dose of 10 mg/kg. Antitumour activities were estimated by the inhibition of tumour volume (FIG. 12A), which was measured with calipers. Each point represents mean tumour volume calculated from 10 animals per experimental group. Animals were sacrificed and tumour weights taken at the end of the study (FIG. 12C). […] Cisplatin was administered intravenously once a week for four weeks at a dose of 4 mg/kg. Taxol was administered intravenously once a week for four weeks at a dose of 20 mg/kg. Antitumour activities were estimated by the inhibition of tumour volume, which was measured with caliper. Each point represents mean tumour volume calculated from 9-10 animals per experimental group. […] Cisplatin was administered intravenously once a week for four weeks at a dose of 4 mg/kg. Antitumour activities were estimated by the inhibition of tumour volume, which was measured with caliper. Each point represents mean tumour volume calculated from 10 animals per experimental group. At the end of the study the animals were sacrificed and tumours weighed. […] Taxol was administered i.p. once a week at a dose of 10 mg/kg. Anti-tumour activity was estimated by the inhibition of tumour volume, which was measured with caliper. Each point represents mean tumour volume calculated from 10 animals per experimental group. In addition animals were sacrificed and tumour weights taken at the end of the study. […] CPT-11 was administered i.p. for 5 days at a dose of 20 mg/kg/day. Antitumour activities were estimated by the inhibition of tumour volume, which was measured with caliper. Each point represents mean tumour volume calculated from 10 animals per experimental group. Tumour weights were measured after animals were sacrificed at the end of the treatment. These cells are not resistant to CPT-11 which was used as a positive control.
# [2] = test system: A498 human kidney cancer cells; experiment: A498 kidney tumour xenograft in SCID mice, controls and chemotherapeutics (Example 7); type: in vivo, human cells in mice; conditions: oligonucleotides 10 mg/kg/2 days i.v., 5-FU 13 mg/kg/day×5, vinblastine 1 mg/kg/week, gemcitabine 100 mg/kg/week
# Text: CD-1 athymic female nude mice, BALB/c nu/nu nude mice, SCID, and SCID beige mice were purchased from Charles River Laboratories (Montreal, Canada) and experiments were typically initiated when the mice were 6-7 weeks old. […] Each experimental group typically contained 10 mice. After the size of tumour reached a mean tumour volume of 50-100 mm^3, treatment was initiated. […] Anti-tumour activity was estimated by the measurement of tumour volume with a calliper at two-three day intervals. Tumour volume was calculated by a formula L×W×H/2, where L indicates length, W indicates width and H indicates height. Within 24 hours after the last treatment, the animals were sacrificed and tumour and body weights were measured. Results of statistical analyses of the data are presented as P values in the figure legends.
# Three additional treatment groups received: 5-FU (13 mg/kg/day×5), vinblastine (1 mg/kg/week) and gemcitabine (100 mg/kg/week). […] Caliper measurements at 1-week intervals were used to calculate tumour volumes. Each point in FIG. 28C represents mean tumour volume calculated from 10 animals per experimental group (with the exception of SEQ ID NO: 1 which was 8 animals). […] After 54 days the mice were sacrificed and the A498 tumours weighed. Each bar represents the mean tumour weight and standard error calculated for each treatment group.
# [3] = test system: MDA-MB-231 human breast cancer cells; experiment: MDA-MB-231 breast tumour xenograft in CD-1 nude mice, combination with taxol or doxorubicin (1.7); type: in vivo, human cells in mice; conditions: doxorubicin 5 mg/kg i.v. weekly
# Procedure: After 52 days the mice were sacrificed and the tumours weighed. […] Mitoxantrone was administered intravenously once at the beginning of the treatments at a dose of 2 mg/kg (FIG. 4A) or once a week for four weeks at a reduced dose of 0.8 mg/kg (FIG. 4B). All treatments were stopped at day 50 (FIG. 4A) or 48 (FIG. 4B), respectively. […] Mitoxantrone was administered intravenously once at the beginning of the treatments at a dose of 2 mg/kg (FIG. 5A) or once a week for four weeks at a reduced dose of 0.8 mg/kg (FIG. 5B). All treatments were stopped at day 42 (FIG. 5A) or 38 (FIG. 5B), respectively. […] A2058 is a metastatic melanoma cell line. […] All treatments were stopped at day 24. […] Taxol was administered intravenously once a week at a dose of 10 mg/kg for three (FIG. 7A) or four weeks (FIG. 7C). Doxorubicin was administered intravenously once a week at a dose of 5 mg/kg for first three weeks (FIG. 7A) or for two weeks (FIG. 7C). All treatments were stopped at day 33 (FIG. 7A) or at day 26 (FIG. 7C), respectively. […] In FIG. 7C, antitumour activities were estimated by the inhibition of tumour volume, which was measured with calipers. Each point represents mean tumour volume calculated from 10 animals per experimental group. […] Taxol was administered intravenously once a week for first three weeks and intraperitoneally once a week for next two weeks at a dose of 10 mg/kg. Cisplatin was administered intravenously once a week for first three weeks and intraperitoneally once a week for next two weeks at a dose of 4 mg/kg. All treatments were stopped at day 40. Antitumour activities were estimated by the inhibition of tumour volume, which was measured with caliper. Each point represents mean tumour volume calculated from 9 animals per experimental group.
substance,measurement,setting,value
"5′-GGCTAAATCGCTCCACCAAG-3′ (all phosphorothioate, sugars by position and methylation of C not given here) [SEQ ID NO: 1, fully phosphorothioated antisense oligonucleotide that hybridizes to the coding region of R2 mRNA]",Tumour weight as % of saline control,[1]; first of two printed values (study and repeat),18%
same,Tumour weight as % of saline control,[1]; second of two printed values (study and repeat),41%
same,Antitumour effect (FIG. 12),"[1]; MDA-CDDP-S4 Cisplatin-resistant, CB-17 SCID mice",significant reduction of tumour weight compared to saline control; also recorded: superior to the inhibitory effects observed with Taxol
same,Effect on tumour growth (volume and weight),[2],dramatic inhibition in growth of Caki-1 and A498 renal tumours; also recorded: superior to any of these compounds
same,Tumour weight as % of saline control,"[3]; MDA-MB-231 (breast), CD-1, SEQ ID NO:1 10 mg/kg i.v. every other day, Taxol 10 mg/kg i.v. weekly",12.6%
same,"Antitumour effect (tumour weight / volume, FIG. 7)","[3]; MDA-MB-231, CD-1 nude mice, oligonucleotides 10 mg/kg i.v. every other day, taxol 10 mg/kg",delay of tumour growth compared to saline control in all three experiments; also recorded: superior to the inhibitory effects observed with taxol or doxorubicin alone
